Assay results from publication PMC9267097, “Synthesis, In Vitro, and Computational Studies of PTP1B Phosphatase Inhibitors Based on Oxovanadium(IV) and Dioxovanadium(V) Complexes” (International Journal of Molecular Sciences, 2022).

Experiments:
PTP1B phosphatase = molecular target: T1, PTP1B phosphatase (Homo sapiens, UniProt P18031); test: Recombinant PTP1B assay (pNPP substrate); format: biochemical; conditions: for inhibitory effect on PTP1B: 78.125 nM (lowest statistically significant concentration); for Ki: calculated as Ki = IC50/(S/Km + 1), S 1 mM, Km 0.7 mM, competitive type assumed from docking, read-out: Ki ± SD; for IC50: recombinant PTP1B 10 nM, 1 mM pNPP, 37 °C, HEPES pH 7.4; for inhibition of PTP1B: concentration range 39.063 to 625 nM
T1 construct: purchased Cayman Chemical, Ann Arbor, MI, USA
T1 sequence (P18031 1-435): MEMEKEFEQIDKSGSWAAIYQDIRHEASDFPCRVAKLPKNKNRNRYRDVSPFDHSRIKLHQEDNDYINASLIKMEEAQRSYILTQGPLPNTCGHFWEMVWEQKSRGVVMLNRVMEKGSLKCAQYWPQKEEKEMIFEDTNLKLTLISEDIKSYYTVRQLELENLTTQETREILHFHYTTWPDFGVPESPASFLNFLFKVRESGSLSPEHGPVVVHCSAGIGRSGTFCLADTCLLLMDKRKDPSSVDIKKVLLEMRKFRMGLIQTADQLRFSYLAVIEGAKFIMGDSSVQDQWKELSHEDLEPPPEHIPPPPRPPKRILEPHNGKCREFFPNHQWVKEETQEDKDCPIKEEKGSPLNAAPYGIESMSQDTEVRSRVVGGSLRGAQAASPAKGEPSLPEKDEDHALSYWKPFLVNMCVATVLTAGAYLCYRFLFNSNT
Procedure: The experiment was carried out on 96-well plates. The final concentration of PTP1B phosphatase in the reaction samples was […] (10 nM). […] The enzyme activities of PTP1B phosphatase were evaluated at 37 °C using 1 mM chromogenic substrate para-nitrophenyl phosphate (pNPP) in 10 mM HEPES buffer pH 7.4. The increase in absorbance (due to the formation of para-nitrophenols) is linearly proportional to the concentration of enzyme activity (with excessive substrate, i.e., zero-order kinetics) and was measured at 405 nm using DigiRead Communication Software (version 1.2.0.2., Dan Kittrich, Asys Hitech GmbH, Eugendorf, Austria) on the Jupiter microplate reader (Biogenet, Józefów, Poland). Data were expressed as the percentage of untreated enzyme (control).

[1] = cited from earlier work; for equivalents of L-ascorbic acid: antioxidant activity towards superoxide radical anion
[2] = tested on: MDA-MB-231 breast cancer cell line; test: Cell viability assay (MTT); format: cell-based; conditions: 24 h
Procedure: (§1) The MCF-7 and MDA-MB-231 breast cancer cell lines and the human keratinocyte HaCaT cell line were obtained from the American Type Culture Collection (ATCC, Manassas, VA, USA). Dulbecco’s modified eagle medium supplemented with 10% fetal bovine serum (FBS) and 1% penicillin/streptomycin was used to cultivate the cell lines. The cells were cultured at 37 °C in a 5% CO2 atmosphere.
(§2) According to the general protocol, a cell viability assay (MTT assay) was performed. […] The chemicals were dissolved in a growth medium containing 1% penicillin/streptomycin. After 24 h, 0.5 mg/mL of MTT solution (3-[4,5-dimethylthiazol-2-yl]-2,5-diphenyl-tetrazolium bromide) was added. 100 µL of DMSO was added to each well once the purple precipitate was clearly visible under the microscope. A microplate reader (Biogenet, Jozefow, Poland) and DigiRead Communication Software were used to measure the absorbance at 492 nm (Asys Hitech GmbH, Eugendorf, Austria). Data were expressed as the percentage of untreated cells (control).

[3] = tested on: human keratinocyte HaCaT cell line; test: Cell viability assay (MTT); format: cell-based; conditions: 24 h
Procedure: as §1, §2

[4] = tested on: MCF-7 breast cancer cell line; test: Cell viability assay (MTT); format: cell-based; conditions: 24 h
Procedure: as §1, §2

Row | Compound | inhibitory effect on PTP1B (PTP1B phosphatase) [%] | Ki (PTP1B phosphatase) [µM] | IC50 (PTP1B phosphatase) [µM] | equivalents of L-ascorbic acid [1] | cell viability (% of control) ([2]; MDA-MB-231, 25 µM) [%] | cell viability (% of control) ([2]; MDA-MB-231, 50 µM) [%] | cell viability (% of control) ([2]; MDA-MB-231, 100 µM) [%] | inhibition of PTP1B (PTP1B phosphatase) | further results
1 | O.O.O.O.O=C([O-])c1cccc(C(=O)[O-])n1.[O]=[V+2] [Compound 1, [VO(dipic)(H2O)2]·2 H2O] | 17 | 0.256 ± 0.0153 | 0.628 ± 0.0391 | 2.359 |  |  |  |  | cytotoxic effect ([2]; MDA-MB-231, 50 µM): 25%; cytotoxic effect (in words) ([3]; 50 µM): no cytotoxic effect; effect on cell growth (in words) ([3]; low concentrations): improved cell growth at low concentrations
2 | O.O=C([O-])c1cccc(C(=O)[O-])n1.[O]=[V+2].c1ccc(-c2ccccn2)nc1 [Compound 2, [VO(dipic)(bipy)]·H2O] | 19 | 0.173 ± 0.0172 | 0.426 ± 0.0371 | 0.936 | 65 | 56 | 44 |  | 
3 | O.O.O=C1CNCC(=O)[O][V](=[O])[O]1.c1ccc(-c2ccccn2)nc1 [Compound 3, [VO(ida)(bipy)]·2 H2O] | 25 | 0.221 ± 0.0191 | 0.543 ± 0.0484 | 5.43 | 76 | 55 | 46 |  | 
4 | COc1ccnc(-c2cc(OC)ccn2)c1.O.O.O=C([O-])c1cccc(C(=O)[O-])n1.[O]=[V+2] [Compound 4] |  | 0.0742 ± 0.0041 | 0.185 ± 0.0098 |  |  |  |  | 31–67% | cell viability (% of control) ([4]; MCF-7, 25 µM): 86%; cell viability (% of control) ([4]; MCF-7, 50 µM): 61%; cell viability (% of control) ([4]; MCF-7, 100 µM): 53%
5 | O.O=C1[O][V-](=[O])(=[O])[O]C(=O)c2cccc1n2.c1ccc(-c2cccc[nH+]2)cc1 [Compound 5, [VOO(dipic)](2-phepyH)·H2O] |  | 0.0667 ± 0.0033 | 0.167 ± 0.008 |  |  |  |  | 38–68% | calculated equivalent towards L-ascorbic acid ([1]; antioxidant activity towards superoxide anion radicals): 0.68
6 | [Na+].[Na+].[Na+].[O]=[V]([O-])([O-])[O-] [Sodium orthovanadate, reference compound] |  |  |  |  |  |  |  | 31–67% | inhibition of enzymatic activity of PTP1B (in words) (PTP1B phosphatase; complexes and orthovanadate 39.0625 nM to 5 µM, ligands 500 nM to 5 µM): inhibited the enzymatic activity of PTP1B phosphatase in a concentration-dependent manner
